From ChEMBL document CHEMBL1909046, “DrugMatrix in vitro pharmacology data” come the findings set out here.

Each structure is given as a SMILES string.

Sequence of Beta-2 adrenergic receptor (P07550 whole entry): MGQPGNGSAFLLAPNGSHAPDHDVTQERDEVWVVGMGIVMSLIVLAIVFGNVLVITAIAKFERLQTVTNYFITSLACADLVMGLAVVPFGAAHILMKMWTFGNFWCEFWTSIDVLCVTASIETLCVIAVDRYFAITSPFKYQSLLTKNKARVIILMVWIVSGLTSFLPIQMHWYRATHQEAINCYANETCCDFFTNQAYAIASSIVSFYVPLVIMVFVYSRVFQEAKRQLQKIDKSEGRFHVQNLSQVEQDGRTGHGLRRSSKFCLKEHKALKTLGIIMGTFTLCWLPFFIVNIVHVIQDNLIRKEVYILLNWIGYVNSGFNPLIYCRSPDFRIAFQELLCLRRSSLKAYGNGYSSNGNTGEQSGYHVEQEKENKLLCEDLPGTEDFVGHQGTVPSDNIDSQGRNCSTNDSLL
Sequence of Substance-P receptor (P25103 whole entry): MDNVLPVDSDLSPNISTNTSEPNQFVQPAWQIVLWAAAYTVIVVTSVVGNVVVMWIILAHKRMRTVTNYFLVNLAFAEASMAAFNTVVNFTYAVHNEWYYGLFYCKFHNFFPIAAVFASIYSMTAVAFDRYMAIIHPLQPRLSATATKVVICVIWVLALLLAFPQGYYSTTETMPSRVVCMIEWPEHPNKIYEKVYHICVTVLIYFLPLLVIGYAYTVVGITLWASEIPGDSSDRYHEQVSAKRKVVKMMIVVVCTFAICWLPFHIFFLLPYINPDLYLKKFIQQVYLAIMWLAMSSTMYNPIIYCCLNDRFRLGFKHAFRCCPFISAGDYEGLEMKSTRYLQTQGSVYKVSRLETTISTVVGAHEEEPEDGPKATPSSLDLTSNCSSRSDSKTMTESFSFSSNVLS
Sequence of 5-hydroxytryptamine receptor 2B (P41595 whole entry): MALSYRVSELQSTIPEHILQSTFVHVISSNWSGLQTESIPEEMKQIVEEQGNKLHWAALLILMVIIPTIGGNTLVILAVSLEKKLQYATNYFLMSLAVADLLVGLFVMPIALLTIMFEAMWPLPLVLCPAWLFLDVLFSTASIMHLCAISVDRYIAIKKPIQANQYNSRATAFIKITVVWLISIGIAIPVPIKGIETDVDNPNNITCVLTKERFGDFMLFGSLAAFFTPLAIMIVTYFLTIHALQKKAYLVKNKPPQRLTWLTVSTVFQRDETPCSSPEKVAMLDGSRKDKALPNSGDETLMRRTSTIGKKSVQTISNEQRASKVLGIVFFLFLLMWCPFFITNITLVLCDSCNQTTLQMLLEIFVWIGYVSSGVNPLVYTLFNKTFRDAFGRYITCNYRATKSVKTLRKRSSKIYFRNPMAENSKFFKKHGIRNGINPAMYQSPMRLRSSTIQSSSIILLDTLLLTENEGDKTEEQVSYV
Sequence of D(3) dopamine receptor (P35462 whole entry): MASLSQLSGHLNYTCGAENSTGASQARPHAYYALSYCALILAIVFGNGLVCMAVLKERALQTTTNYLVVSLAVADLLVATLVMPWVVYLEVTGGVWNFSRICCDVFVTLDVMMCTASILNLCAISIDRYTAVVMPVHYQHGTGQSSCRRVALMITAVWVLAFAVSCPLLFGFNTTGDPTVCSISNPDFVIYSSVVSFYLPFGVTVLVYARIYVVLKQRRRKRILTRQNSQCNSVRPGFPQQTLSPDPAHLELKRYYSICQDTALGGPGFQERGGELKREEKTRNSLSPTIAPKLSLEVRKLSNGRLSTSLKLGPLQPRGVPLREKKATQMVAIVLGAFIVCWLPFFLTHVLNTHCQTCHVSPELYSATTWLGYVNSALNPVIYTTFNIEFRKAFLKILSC

System in one experiment: not listed separately
Briefly: DRUGMATRIX: Glutamate, AMPA radioligand binding (ligand: [3H] AMPA). Particulars: Not Active = under 50% inhibition at 10 µM. Type of experiment: cell membranes, Rattus norvegicus, Wistar, Cerebral cortex, Membrane.
As for `Cc1cc(NS(=O)(=O)c2ccc(N)cc2)no1` [SULFAMETHOXAZOLE], the IC50 result is on record as “Not Active” and the Ki entry is reported as “Not Active”.

The next experiment concerns the target D(3) dopamine receptor (Homo sapiens, UniProt P35462). The experiment can be described thus: DRUGMATRIX: Dopamine D3 radioligand binding (ligand: [3H] Spiperone). The class given is cell membranes, CHO, Membrane. The settings on record: cho.
For the compound `Cc1cc(NS(=O)(=O)c2ccc(N)cc2)no1` [SULFAMETHOXAZOLE], the IC50 result is listed as “Not Active”.

The target in the next experiment is T1, Alpha-2A adrenergic receptor (Homo sapiens, UniProt P08913). Also: in other assays of this panel Not Active means under 50% inhibition at 10 µM.
T1 sequence (P08913 whole entry): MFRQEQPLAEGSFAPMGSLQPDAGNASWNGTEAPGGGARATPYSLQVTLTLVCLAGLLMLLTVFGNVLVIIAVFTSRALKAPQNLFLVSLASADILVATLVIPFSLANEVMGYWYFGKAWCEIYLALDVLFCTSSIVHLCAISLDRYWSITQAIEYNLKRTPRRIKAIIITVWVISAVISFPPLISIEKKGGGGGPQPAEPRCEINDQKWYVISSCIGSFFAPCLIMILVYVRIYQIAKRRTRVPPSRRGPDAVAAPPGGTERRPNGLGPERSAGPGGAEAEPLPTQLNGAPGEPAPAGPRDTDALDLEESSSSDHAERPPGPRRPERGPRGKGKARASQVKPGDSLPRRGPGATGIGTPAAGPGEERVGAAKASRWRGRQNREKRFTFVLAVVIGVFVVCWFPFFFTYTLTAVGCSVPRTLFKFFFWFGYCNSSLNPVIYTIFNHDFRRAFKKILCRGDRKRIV
Test: not given
Type of experiment: cell membranes, Sf9, Membrane. Particulars: sf9.
For `Cc1cc(NS(=O)(=O)c2ccc(N)cc2)no1` [SULFAMETHOXAZOLE], the IC50 entry is recorded as “Not Active”.

In another experiment the target is Mitogen-activated protein kinase 14 (Homo sapiens, UniProt Q16539).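 Also: inhibition of p38alpha enzyme activity in a biochemical kinase assay, with myelin basic protein serving as substrate; in other assays of this panel Not Active means under 50% inhibition at 10 µM.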
Sequence of Mitogen-activated protein kinase 14 (Q16539 whole entry): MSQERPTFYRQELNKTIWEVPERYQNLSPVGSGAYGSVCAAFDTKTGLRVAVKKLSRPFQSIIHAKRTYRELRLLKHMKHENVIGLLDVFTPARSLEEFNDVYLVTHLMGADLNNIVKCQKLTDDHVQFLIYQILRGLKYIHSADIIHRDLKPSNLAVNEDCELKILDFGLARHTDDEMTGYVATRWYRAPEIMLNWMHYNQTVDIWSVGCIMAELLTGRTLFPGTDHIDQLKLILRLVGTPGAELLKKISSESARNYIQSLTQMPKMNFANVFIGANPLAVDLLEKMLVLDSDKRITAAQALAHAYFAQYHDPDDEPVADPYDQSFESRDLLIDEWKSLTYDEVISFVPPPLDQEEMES
Test: not given
On the set-up: species or system Escherichia coli.
Settings: not given
As for `Cc1cc(NS(=O)(=O)c2ccc(N)cc2)no1` [SULFAMETHOXAZOLE], the IC50 result was “Not Active”.

The next experiment addresses T2, Adenosine receptor A1 (Homo sapiens, UniProt P30542).
T2 sequence (P30542 whole entry): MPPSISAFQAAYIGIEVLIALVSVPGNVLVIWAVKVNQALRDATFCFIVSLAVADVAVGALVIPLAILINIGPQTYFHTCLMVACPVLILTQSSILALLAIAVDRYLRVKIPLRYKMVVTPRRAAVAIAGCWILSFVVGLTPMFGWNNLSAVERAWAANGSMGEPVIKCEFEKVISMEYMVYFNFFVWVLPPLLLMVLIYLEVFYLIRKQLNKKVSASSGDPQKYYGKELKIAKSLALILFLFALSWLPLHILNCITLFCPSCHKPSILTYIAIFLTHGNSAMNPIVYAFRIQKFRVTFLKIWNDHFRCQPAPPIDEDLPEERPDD
Test: not given
The class given is cell membranes, CHO, Membrane. Particulars: cho.
As to `Cc1cc(NS(=O)(=O)c2ccc(N)cc2)no1` [SULFAMETHOXAZOLE], the IC50 result is listed as “Not Active”.

System in a further experiment: not listed separately
The experiment can be described thus: DRUGMATRIX: Calcium Channel Type L, Dihydropyridine radioligand binding (ligand: [3H] Nitrendipine). Type of experiment: cell membranes, Rattus norvegicus, Wistar, Cerebral cortex, Membrane. The settings on record: Not Active = under 50% inhibition at 10 µM.
`Cc1cc(NS(=O)(=O)c2ccc(N)cc2)no1` [SULFAMETHOXAZOLE]: the IC50 result is “Not Active” and the Ki entry is listed as “Not Active”.

Another experiment concerns the target 5-hydroxytryptamine receptor 2B (Homo sapiens, UniProt P41595). Also: in other assays of this panel Not Active means under 50% inhibition at 10 µM.
Test: not given
Type of experiment: cell membranes, CHO-K1, Membrane. The settings on record: cho-k1.
Take `Cc1cc(NS(=O)(=O)c2ccc(N)cc2)no1` [SULFAMETHOXAZOLE]: the IC50 entry is “Not Active”.

A further experiment addresses Aldo-keto reductase family 1 member B1 (Rattus norvegicus, UniProt P07943).
Test: not given
The class given is tissue-based, Lens of camera-type eye.
Settings: not given
As for `Cc1cc(NS(=O)(=O)c2ccc(N)cc2)no1` [SULFAMETHOXAZOLE], the IC50 result is reported as “Not Active”.

The target of the next experiment is C-C chemokine receptor type 5 (Homo sapiens, UniProt P51681). Also: in other assays of this panel Not Active means under 50% inhibition at 10 µM.
Sequence of C-C chemokine receptor type 5 (P51681 whole entry): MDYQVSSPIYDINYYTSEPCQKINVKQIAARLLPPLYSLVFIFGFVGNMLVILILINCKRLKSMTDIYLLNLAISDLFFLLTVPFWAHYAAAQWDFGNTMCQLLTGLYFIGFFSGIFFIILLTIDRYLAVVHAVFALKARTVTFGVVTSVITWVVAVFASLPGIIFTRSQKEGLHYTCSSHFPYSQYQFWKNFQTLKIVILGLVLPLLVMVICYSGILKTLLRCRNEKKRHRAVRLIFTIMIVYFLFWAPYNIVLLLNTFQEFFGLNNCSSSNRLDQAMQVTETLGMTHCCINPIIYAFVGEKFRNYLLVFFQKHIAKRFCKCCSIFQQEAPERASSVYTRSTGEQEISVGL
Test: not given
Type of experiment: cell membranes, Membrane. Particulars: hek293.
With `Cc1cc(NS(=O)(=O)c2ccc(N)cc2)no1` [SULFAMETHOXAZOLE], the IC50 result is given as “Not Active”.

The next experiment has as its target T3, Cholecystokinin receptor type A (Homo sapiens, UniProt P32238). Also: in other assays of this panel Not Active means under 50% inhibition at 10 µM.
T3 sequence (P32238 whole entry): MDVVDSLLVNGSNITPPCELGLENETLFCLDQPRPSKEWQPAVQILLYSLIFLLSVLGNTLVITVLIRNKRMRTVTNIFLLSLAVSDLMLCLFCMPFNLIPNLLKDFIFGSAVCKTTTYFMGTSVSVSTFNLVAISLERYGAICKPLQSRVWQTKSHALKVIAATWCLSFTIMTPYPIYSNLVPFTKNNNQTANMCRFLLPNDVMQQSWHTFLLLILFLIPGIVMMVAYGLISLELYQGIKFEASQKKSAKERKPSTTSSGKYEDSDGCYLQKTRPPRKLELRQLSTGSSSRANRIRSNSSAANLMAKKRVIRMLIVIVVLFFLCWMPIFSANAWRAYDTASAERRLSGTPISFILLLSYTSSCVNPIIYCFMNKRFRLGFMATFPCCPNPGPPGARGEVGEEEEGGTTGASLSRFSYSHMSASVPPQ
Test: not given
Type of experiment: cell membranes, Membrane. The settings on record: 1321-n1.
For `Cc1cc(NS(=O)(=O)c2ccc(N)cc2)no1` [SULFAMETHOXAZOLE], the IC50 result is listed as “Not Active”.

Another experiment addresses Beta-2 adrenergic receptor (Homo sapiens, UniProt P07550). The experiment can be described thus: DRUGMATRIX: Adrenergic beta2 radioligand binding (ligand: [3H] CGP-12177). Type of experiment: cell membranes, Membrane. Particulars: cho; Not Active = under 50% inhibition at 10 µM.
On to `Cc1cc(NS(=O)(=O)c2ccc(N)cc2)no1` [SULFAMETHOXAZOLE], for which the IC50 result is listed as “Not Active”.

Another experiment addresses Substance-P receptor (Homo sapiens, UniProt P25103).
Test: not given
Type of experiment: cell membranes, CHO, Membrane. Particulars: cho.
Take `Cc1cc(NS(=O)(=O)c2ccc(N)cc2)no1` [SULFAMETHOXAZOLE]: the IC50 entry is reported as “Not Active”.

In another experiment the target is Vascular endothelial growth factor receptor 1 (Homo sapiens, UniProt P17948). Also: in other assays of this panel Not Active means under 50% inhibition at 10 µM.
Sequence of Vascular endothelial growth factor receptor 1 (P17948 whole entry): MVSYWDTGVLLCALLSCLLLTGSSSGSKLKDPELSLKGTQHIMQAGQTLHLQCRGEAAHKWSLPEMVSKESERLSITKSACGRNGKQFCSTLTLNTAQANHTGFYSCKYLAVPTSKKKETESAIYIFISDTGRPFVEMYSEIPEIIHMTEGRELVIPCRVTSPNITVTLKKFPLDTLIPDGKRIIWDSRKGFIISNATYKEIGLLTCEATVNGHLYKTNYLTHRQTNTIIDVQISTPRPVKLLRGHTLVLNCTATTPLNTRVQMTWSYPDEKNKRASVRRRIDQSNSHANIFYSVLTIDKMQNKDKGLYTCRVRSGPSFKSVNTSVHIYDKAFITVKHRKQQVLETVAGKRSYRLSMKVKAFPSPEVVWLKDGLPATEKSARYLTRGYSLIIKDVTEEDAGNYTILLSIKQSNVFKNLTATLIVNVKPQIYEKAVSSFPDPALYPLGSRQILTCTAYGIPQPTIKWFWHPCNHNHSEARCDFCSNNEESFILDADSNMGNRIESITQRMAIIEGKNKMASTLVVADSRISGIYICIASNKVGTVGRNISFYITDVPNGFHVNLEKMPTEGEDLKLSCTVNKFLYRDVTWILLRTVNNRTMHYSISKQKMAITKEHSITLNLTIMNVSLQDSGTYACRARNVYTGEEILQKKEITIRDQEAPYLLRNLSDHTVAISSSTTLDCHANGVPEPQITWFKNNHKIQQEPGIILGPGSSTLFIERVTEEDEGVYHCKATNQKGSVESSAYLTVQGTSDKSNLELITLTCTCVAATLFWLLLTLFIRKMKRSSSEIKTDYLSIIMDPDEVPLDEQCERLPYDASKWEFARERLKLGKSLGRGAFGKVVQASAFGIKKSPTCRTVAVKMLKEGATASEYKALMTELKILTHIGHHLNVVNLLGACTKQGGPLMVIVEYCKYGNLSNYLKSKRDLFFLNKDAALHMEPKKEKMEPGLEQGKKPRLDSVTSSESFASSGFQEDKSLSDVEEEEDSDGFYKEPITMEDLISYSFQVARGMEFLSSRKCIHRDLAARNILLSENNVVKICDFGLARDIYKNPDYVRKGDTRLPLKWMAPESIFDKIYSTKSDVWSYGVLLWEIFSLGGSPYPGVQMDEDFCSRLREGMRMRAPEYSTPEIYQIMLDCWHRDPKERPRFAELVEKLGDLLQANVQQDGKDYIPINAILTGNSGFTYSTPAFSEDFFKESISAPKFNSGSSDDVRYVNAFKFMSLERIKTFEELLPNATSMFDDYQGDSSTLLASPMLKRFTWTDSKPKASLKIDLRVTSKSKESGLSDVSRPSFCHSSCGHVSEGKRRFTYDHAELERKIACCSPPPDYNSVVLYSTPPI
Test: not given
The class given is cell-based. The settings on record: huvec.
Consider `Cc1cc(NS(=O)(=O)c2ccc(N)cc2)no1` [SULFAMETHOXAZOLE], for which the IC50 entry is reported as “Not Active”.

System in another experiment: not listed separately
The experiment can be described thus: DRUGMATRIX: beta-Lactamase enzyme inhibition (substrate: Nitrocefin). Further details: species or system Bacillus cereus. Particulars: Not Active = under 50% inhibition at 10 µM.
In the case of `Cc1cc(NS(=O)(=O)c2ccc(N)cc2)no1` [SULFAMETHOXAZOLE], the IC50 entry is listed as “Not Active” and the Ki entry is given as “Not Active”.

Another experiment deals with T4, Polyunsaturated fatty acid lipoxygenase ALOX15 (Oryctolagus cuniculus, UniProt P12530).
T4 sequence (P12530 whole entry): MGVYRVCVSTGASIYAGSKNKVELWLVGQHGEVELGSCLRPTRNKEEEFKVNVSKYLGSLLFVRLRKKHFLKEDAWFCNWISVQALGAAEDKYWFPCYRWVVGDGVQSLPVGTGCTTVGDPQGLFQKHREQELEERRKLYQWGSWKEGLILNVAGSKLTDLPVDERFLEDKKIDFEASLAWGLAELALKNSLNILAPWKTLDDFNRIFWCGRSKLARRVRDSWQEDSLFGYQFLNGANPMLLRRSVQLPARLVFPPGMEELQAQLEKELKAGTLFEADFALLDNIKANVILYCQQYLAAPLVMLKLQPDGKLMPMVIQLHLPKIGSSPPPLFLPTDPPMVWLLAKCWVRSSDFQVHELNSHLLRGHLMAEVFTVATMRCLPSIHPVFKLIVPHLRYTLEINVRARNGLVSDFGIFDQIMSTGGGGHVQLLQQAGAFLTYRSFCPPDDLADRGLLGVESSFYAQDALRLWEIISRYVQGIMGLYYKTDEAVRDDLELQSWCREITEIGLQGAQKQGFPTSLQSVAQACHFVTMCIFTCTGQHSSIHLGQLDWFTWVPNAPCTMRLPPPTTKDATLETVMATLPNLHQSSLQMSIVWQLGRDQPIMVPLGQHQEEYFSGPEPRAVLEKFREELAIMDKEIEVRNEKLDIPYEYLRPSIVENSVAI
The experiment can be described thus: biochemical. Type of experiment: tissue-based, Reticulocytes. The settings on record: reticulocytes.
Consider `Cc1cc(NS(=O)(=O)c2ccc(N)cc2)no1` [SULFAMETHOXAZOLE], for which the IC50 result was “Not Active”.

System in a further experiment: not listed separately
The experiment can be described thus: DRUGMATRIX: Atrial Natriuretic Factor (ANF) radioligand binding (ligand: [125I] ANF (rat)). The settings on record: Not Active = under 50% inhibition at 10 µM. Type of experiment: cell membranes, Cavia porcellus, Dunkin-Hartley, Adrenal gland, Membrane.
For `Cc1cc(NS(=O)(=O)c2ccc(N)cc2)no1` [SULFAMETHOXAZOLE], the IC50 result is on record as “Not Active” and the Ki result was “Not Active”.

The target in a further experiment is D(1A) dopamine receptor (Homo sapiens, UniProt P21728). Briefly: DRUGMATRIX: Dopamine D1 radioligand binding (ligand: [3H] SCH-23390). Particulars: cho; Not Active = under 50% inhibition at 10 µM. Type of experiment: cell membranes, CHO, Membrane.
Sequence of D(1A) dopamine receptor (P21728 whole entry): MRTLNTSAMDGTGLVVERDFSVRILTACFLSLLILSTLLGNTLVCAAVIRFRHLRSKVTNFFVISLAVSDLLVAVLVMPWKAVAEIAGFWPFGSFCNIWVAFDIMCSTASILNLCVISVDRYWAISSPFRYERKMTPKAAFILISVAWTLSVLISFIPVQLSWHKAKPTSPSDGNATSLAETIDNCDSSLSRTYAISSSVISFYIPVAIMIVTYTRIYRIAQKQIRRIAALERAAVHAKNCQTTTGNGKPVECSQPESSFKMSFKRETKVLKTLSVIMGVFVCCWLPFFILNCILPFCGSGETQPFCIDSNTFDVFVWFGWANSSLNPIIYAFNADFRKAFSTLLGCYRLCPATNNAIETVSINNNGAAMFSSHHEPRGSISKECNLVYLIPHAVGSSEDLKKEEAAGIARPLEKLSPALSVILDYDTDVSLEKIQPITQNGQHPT
Regarding `Cc1cc(NS(=O)(=O)c2ccc(N)cc2)no1` [SULFAMETHOXAZOLE], the IC50 entry was “Not Active”.
